Legend:
Homo sapiens [1] = species on record: Homo sapiens; assay: Selectivity ratio of Ki for recombinant human airway trypsin-like protease to Ki for matriptase (unknown origin)
Homo sapiens [2] = species on record: Homo sapiens; assay: Selectivity ratio of Ki for human uPA to Ki for matriptase (unknown origin)
[3] = molecular target: T1, Transmembrane protease serine 6 (Homo sapiens, UniProt Q8IU80); assay: Inhibition of matriptase-2 (unknown origin) expressed in HEK293 cells using ln-Ala-Arg-a-Arg-para-nitroanilide as substrate by UV-vis spectrophotometry; type: cell-based
T1 sequence (Q8IU80 whole entry): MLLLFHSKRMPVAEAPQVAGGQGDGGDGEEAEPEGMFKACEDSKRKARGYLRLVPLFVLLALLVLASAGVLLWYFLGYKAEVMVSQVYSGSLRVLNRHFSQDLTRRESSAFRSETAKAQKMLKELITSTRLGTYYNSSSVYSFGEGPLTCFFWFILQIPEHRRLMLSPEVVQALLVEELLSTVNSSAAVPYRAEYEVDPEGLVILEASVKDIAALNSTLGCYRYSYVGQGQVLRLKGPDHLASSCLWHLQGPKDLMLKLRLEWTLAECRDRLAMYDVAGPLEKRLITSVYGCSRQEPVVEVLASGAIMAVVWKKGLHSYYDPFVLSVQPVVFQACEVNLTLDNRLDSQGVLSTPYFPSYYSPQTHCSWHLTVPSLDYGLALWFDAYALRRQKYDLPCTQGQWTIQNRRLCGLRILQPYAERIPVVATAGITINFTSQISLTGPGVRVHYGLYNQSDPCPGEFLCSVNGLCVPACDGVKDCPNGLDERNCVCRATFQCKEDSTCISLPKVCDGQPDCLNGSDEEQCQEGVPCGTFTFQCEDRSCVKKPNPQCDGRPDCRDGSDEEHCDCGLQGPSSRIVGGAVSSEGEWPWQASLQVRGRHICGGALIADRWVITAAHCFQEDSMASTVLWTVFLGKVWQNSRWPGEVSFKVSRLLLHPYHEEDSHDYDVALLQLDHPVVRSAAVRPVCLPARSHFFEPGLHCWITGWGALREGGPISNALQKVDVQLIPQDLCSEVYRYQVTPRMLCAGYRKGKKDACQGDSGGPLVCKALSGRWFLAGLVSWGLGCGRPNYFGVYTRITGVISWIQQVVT

Coagulation factor X = Coagulation factor X (Homo sapiens, UniProt P00742); assay: Inhibition of human factor 10a using CH3OCO-D-Cha-Gly-Arg-pNA as substrate
Chain of Coagulation factor X (P00742 41-179 limits assumed): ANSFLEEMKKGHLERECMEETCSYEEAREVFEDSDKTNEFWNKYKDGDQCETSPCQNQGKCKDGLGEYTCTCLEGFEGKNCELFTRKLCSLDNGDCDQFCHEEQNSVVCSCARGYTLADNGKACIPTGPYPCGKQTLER
Chain of Coagulation factor X (P00742 235-488 limits assumed): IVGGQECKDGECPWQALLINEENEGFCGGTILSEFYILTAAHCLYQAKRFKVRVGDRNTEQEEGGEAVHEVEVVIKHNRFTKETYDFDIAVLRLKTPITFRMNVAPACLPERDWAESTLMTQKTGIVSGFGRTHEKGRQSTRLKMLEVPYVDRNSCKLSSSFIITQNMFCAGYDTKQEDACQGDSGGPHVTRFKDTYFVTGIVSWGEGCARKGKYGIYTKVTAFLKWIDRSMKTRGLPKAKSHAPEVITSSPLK

Prothrombin = Prothrombin (Bos taurus, UniProt P00735); assay: Inhibition of bovine thrombin using MeSO2-D-Cha-Gly-Arg-pNA as substrate
HEK293 = assay: Selectivity ratio of Ki for matriptase-2 (unknown origin) expressed in HEK293 cells to Ki for matriptase (unknown origin); type: cell-based; conditions: Homo sapiens
[4] = molecular target: T2, Suppressor of tumorigenicity 14 protein (Homo sapiens, UniProt Q9Y5Y6); assay: Inhibition of matriptase (unknown origin) using MeSO2-D-Cha-Gly-Arg-pNA as substrate
T2 sequence (Q9Y5Y6 whole entry): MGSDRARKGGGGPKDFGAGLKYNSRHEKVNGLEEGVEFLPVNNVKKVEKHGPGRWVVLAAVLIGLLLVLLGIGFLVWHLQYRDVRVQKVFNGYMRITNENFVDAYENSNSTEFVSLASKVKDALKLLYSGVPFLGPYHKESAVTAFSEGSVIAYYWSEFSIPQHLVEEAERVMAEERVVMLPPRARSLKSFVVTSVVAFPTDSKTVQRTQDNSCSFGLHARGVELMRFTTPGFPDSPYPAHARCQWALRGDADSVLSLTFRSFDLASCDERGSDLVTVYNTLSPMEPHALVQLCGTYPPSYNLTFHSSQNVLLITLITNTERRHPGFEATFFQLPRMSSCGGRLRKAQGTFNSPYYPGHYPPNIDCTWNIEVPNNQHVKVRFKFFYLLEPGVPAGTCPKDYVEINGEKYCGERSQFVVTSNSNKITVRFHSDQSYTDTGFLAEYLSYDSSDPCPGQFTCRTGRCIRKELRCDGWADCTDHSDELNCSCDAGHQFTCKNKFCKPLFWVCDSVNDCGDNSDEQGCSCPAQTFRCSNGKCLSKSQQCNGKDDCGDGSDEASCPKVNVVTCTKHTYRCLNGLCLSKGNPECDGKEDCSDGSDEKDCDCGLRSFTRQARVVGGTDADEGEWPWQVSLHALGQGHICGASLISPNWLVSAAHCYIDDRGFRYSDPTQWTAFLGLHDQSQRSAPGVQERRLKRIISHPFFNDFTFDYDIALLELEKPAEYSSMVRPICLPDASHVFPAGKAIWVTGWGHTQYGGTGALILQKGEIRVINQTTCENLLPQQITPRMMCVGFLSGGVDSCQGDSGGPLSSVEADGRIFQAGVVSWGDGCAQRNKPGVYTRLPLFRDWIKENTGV

Structure (SMILES): COc1ccc(-c2cccc(S(=O)(=O)N[C@@H](Cc3cccc(C(=N)N)c3)C(=O)N3CCC(CCN)CC3)c2)c(OC)c1
- Ratio Ki (Homo sapiens [1]): 20
- Ratio Ki (Homo sapiens [2]): 20
- Ki [3]: 310 nM
- Ki (Coagulation factor X): 110 nM
- Ki (Prothrombin): 30 nM
- Ratio Ki (HEK293): 20
- Ki [4]: 1 nM
